Key:
[1] = target: T1, AsPC-1 cells (Homo sapiens, UniProt P01116, G12D); test: Cellular phospho-ERK assay, AsPC-1 cells (KRAS G12D); format: cell-based; settings: 2 hours, read-out: AsPC1 pERK IC50
T1 construct: p-ERK/total ERK AlphaSureFire read-out
Procedure: Procedure for Cellular Phospho-ERK Assay in KRAS Wild Type and Mutant (G12D, G12V) Cell Lines
PANC08.13 cells (ATCC® CRL-2551™), containing homozygous KRAS-G12D activating mutation, were cultured in growth medium made of RPMI1640-GlutaMAX™-I (ThermoFisher Scientific 61870) containing 15% heat inactivated fetal bovine serum (ThermoFisher Scientific 10091148)). AsPC-1 cells (ATCC® CRL-1682™), containing homozygous KRAS-G12D activating mutation, were cultured in T150 flask in growth medium (RPMI medium 1640-GlutaMAX™-I (ThermoFisher Scientific 61870) containing 10% fetal bovine serum (ThermoFisher Scientific 10091148)).
Cells for the assay were harvested in growth medium after TrypLE (ThermoFisher scientific 12604021) digestion and were seeded in a 384-well collagen coated cell culture plate (Corning 356702) at a density of 10,000-15,000 cells/20 μL/well, and incubated at 37° C., 5% CO2 overnight. The compound (with 10 mM stock concentration) dose-response titrations were prepared [30 μM final ERK detection assay concentration and 1:3 dilutions, 10-point dose response] and appropriate amounts (270 nL) of test compounds were dispensed in a 384-well intermediate plate using an Echo 550 liquid handler. 30 μL/well of RPMI medium 1640-GlutaMAX™-I was added to the intermediate plate and the contents of the intermediate plate (10 μL/well) were then transferred to the 384-well collagen coated cell culture plate, which was incubated at 37° C., 5% CO2 for 2 hours. After removal of medium from the collagen coated cell culture plate, cells were lysed in lysis buffer from Alpha SureFire® Ultra™ Multiplex p-ERK and total ERK assay kit (PerkinElmer MPSU-PTERK) containing Halt™ Protease and Phosphatase inhibitor cocktail (ThermoFisher Scientific 78446) at room temperature with constant shaking at 300 rpm for 30 minutes. The cell lysates were then transferred to an OptiPlate-384 plate (PerkinElmer 6005620), and the phosphorylation of ERK (p-ERK) and total ERK levels were detected by Alpha SureFire® Ultra™ Multiplex p-EEK kit and total ERK assay kit (PerkinElmer MPSU-PTERK) following the manufacturer's protocol. Assay plates were read on a EnVision Multimode Plate Reader (PerkinElmer), and the ratio of p-ERK vs. total ERK in each well was used as the final readout. Dose response curves were analyzed using a 4-parameter logistic model to calculate IC50 values using Spotfire software.

[2] = target: KRAS G12V (Homo sapiens, UniProt P01116, G12V); test: SOS-catalyzed nucleotide exchange assay, KRAS G12V (Procedure A); format: biochemical; settings: GNE
Text: (§1) Procedure for SOS-Catalyzed Nucleotide Exchange Assay for KRAS-WT, G12C/D/V, G13D, HRAS, and NRAS (Procedure A)
(§2) Recombinant KRAS-G12C protein used in this assay has an additional triple mutation (C51S/C80L/C118S). Whereas KRAS-WT, G12D/V, G13D, HRAS and NRAS are in context of their WT protein sequence background. Specifically, the SOS-catalyzed nucleotide exchange assay utilizes a preformed TR-FRET complex containing a specific biotinylated RAS protein (KRAS-WT, G12C/V/D, G13D, HRAS, NRAS; described above) with Bodipy-GDP, and Terbium-streptavidin. Compounds are preincubated with this complex for 60 minutes. Subsequently, recombinant human SOS protein and unlabeled GTP are added to initiate the exchange reaction. Small molecule inhibitors stabilize the Bodipy-GDP complex whereas the untreated protein rapidly exchanges Bodipy-GDP for unlabeled GTP resulting in reduced TR-FRET signal.
(§3) To assemble the preformed TR-FRET complexes, each biotinylated RAS protein is diluted to 2 μM in an EDTA Buffer (20 mM HEPES pH 7.5, 50 mM sodium chloride, 10 mM EDTA, and 0.01% Tween) and incubated at room temperature for one hour. This mixture is then further diluted to 90 nM in an Assay Buffer (20 mM HEPES pH 7.5, 150 mM sodium chloride, 10 mM magnesium chloride, and 0.005% Tween) containing 15 nM of Terbium-Streptavidin (Invitrogen, catalog #PV3577) and 900 nM of Bodipy-GDP (Invitrogen, catalog #G22360) and incubated at room temperature for six hours. It should be noted that this preformed TR-FRET complex for each of the RAS protein were made ahead of time, aliquoted and stored at −80° C. until the day of the experiment.
(§4) Each test compound (10 mM stock in DMSO) is diluted in DMSO to make a final-10-point, 3-fold dilution and is acoustically dispensed into a 384-well assay plate (Corning, catalog #3820) using an Echo 550 (Labcyte). Each well of the assay plate receives 3 μL of a specific 3×RAS preformed TR-FRET complex and 3 μL of Assay Buffer and is incubated at room temperature for 60 minutes (preincubation time). Each well then receives 3 μL of 3× recombinant human SOS protein and GTP (Sigma, G8877) in Assay Buffer and is incubated at room temperature for 30 minutes (G13D), 60 minutes (KRAS WT/G12C/D, H/NRAS) or 90 minutes for G12V. The final reaction in each well of 9 μL consists of 3 mM GTP, specific Ras and SOS proteins in the following concentrations: KRAS-G12C/SOS=3 nM/40 nM, KRAS-WT and G12D/SOS=1 nM/40 nM, KRAS-G12V/SOS=1.25 nM/160 nM, KRAS-G13D/SOS=1.25 nM/0 nM, HRAS and NRAS=1.25 nM/40 nM.
(§5) The time-resolved fluorescence resonance energy transfer (TR-FRET) signal is measured on an Envision (PerkinElmer) plate reader: Excitation filter=340 nm; emission1=495 nm; emission2=520 nm; dichroic mirror=D400/D505; delay time=[…]. The signal of each well is determined as the ratio of the emission at 520 nm to that at 495 nm. Percent effect of each well is determined after normalization to control wells containing DMSO (no effect) or a saturating concentration of inhibitor (max effect). The apparent effect as a function of compound concentration is fit to a four-parameter logistic equation.
(§6) For Example No. 14, nucleotide exchange assays for KRAS G12D, WT, G12C, and G12V were performed according to Procedure B. All the other compounds were tested according to Procedure A.

[3] = target: KRAS WT (Homo sapiens, UniProt P01116); test: SOS-catalyzed nucleotide exchange assay, KRAS WT (Procedure A); format: biochemical; settings: GNE
Text: as §1, §2, §3, §4, §5, §6

[4] = target: KRAS G12D (Homo sapiens, UniProt P01116, G12D); test: SOS-catalyzed nucleotide exchange assay, KRAS G12D (Procedure A); format: biochemical; settings: guanine nucleotide exchange (GNE)
Text: as §1, §2, §3, §4, §5, §6

Chain of KRAS G12D (P01116 with tags, fused parts or gaps isoform P01116-2 G12D): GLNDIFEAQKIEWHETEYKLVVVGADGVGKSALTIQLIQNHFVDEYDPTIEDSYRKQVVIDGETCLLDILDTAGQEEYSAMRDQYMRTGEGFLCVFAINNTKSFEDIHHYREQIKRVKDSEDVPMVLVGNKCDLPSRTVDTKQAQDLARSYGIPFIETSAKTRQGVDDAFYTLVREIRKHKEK
Chain of KRAS WT (P01116 with tags, fused parts or gaps isoform P01116-2): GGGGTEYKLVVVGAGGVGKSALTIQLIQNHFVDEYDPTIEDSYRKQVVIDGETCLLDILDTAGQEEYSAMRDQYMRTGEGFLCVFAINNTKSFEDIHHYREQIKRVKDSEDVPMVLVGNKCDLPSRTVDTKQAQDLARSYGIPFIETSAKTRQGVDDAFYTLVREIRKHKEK
T1 sequence (P01116 1-188 isoform P01116-2 G12D): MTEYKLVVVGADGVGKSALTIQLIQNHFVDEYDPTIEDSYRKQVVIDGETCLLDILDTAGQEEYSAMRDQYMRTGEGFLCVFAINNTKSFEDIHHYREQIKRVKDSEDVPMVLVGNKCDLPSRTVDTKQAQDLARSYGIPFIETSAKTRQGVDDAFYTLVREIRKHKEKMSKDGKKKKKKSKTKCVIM
Chain of KRAS G12V (P01116 with tags, fused parts or gaps isoform P01116-2 G12V): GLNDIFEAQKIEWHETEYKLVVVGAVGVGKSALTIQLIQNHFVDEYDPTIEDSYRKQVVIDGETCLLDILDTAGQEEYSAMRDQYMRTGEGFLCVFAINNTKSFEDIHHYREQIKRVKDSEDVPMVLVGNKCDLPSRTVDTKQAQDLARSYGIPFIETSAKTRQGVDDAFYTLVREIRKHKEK

SMILES	IC50 [1]	IC50 [2]	IC50 [3]	IC50 [4]
Cc1cc2[nH]ncc2c(-c2nccc3c2sc2nc(OC[C@H]4C[C@H](S(C)(=O)=O)C4)nc(N4C[C@H]5CC[C@@H](C4)N5)c23)c1C(F)(F)F [Ex-29, 4-((1R,5S)-3,8-diazabicyclo[3.2.1]octan-3-yl)-8-(6-methyl-5-(trifluoromethyl)-1H-indazol-4-yl)-2-(((1r,3R)-3-(methylsulfonyl)cyclobutyl)meth-oxy)pyrido[4′,3′:4,5] thieno[2,3-d]pyrimidine]	> 30000 nM	> 11100 nM	> 11100 nM	2480 nM
C#Cc1c(F)ccc2cc3[nH]ncc3c(-c3nccc4c3sc3nc(OC[C@]5(CN6CCC7(CCCCC7)CC6)CC5(F)F)nc(N5C[C@H]6CC[C@@H](C5)N6)c34)c12 [Ex-100, 2-(((R)-1-((3-azaspiro[5.5]undecan-3-yl)methyl)-2,2-difluorocyclopropyl)meth-oxy)-4-((1R,5S)-3,8-diazabicyclo[3.2.1]octan-3-yl)-8-(5-ethynyl-6-fluoro-1H-benzo[f]indazol-4-yl)pyrido [4′,3′:4,5]thie-no[2,3-d]pyrimidine]	753 nM	> 11100 nM	> 11100 nM	8.52 nM
C#Cc1c(F)ccc2cc3[nH]ncc3c(-c3nccc4c3sc3nc(OC[C@@]56CCCN5C/C(=C\F)C6)nc(N5C[C@H]6CC[C@@H](C5)N6)c34)c12 [Ex-89, 4-((1R,5S)-3,8-diazabicyclo[3.2.1]octan-3-yl)-8-(5-ethynyl-6-fluoro-1H-benzo[f]indazol-4-yl)-2-(((S,Z)-2-(fluoromethylene)tetrahydro-1H-pyrrolizin-7a(5H)-yl)methoxy)pyrido[4′,3′:4,5]thieno[2,3-d]pyrimidine]	8.18 nM	48.8 nM	32.8 nM	1.67 nM
C#Cc1c(F)sc2cc3[nH]ncc3c(-c3nccc4c3sc3nc(OC[C@@]56CCCN5C[C@H](F)C6)nc(N5C[C@H]6CC[C@@H](C5)N6)c34)c12 [Ex-82, 4-((1R,5S)-3,8-diazabicyclo[3.2.1]oc-tan-3-yl)-8-(5-ethynyl-6-fluoro-1H-thieno[3,2-f]indazol-4-yl)-2-(((2R,7aS)-2-fluorotetrahydro-1H-pyrrolizin-7a(5H)-yl)methoxy)pyri-do[4′,3′:4,5]thi-eno[2,3-d]pyrimidine]	6.29 nM	16.2 nM	12.5 nM	1.93 nM
C#Cc1c(F)ccc2cc3[nH]ncc3c(-c3nccc4c3sc3nc(OC[C@]5(CN6CC7(CCOC7)C6)CC5(F)F)nc(N5C[C@H]6CC[C@@H](C5)N6)c34)c12 [Ex-104, 2-(((1R)-1-(((4-((1R,5S)-3,8-diazabicyclo[3.2.1]octan-3-yl)-8-(5-ethynyl-6-fluoro-1H-benzo[f]indazol-4-yl)pyrido[4′,3′:4,5]thie-no[2,3-d]pyrimidin-2-yl)oxy)methyl)-2,2-difluorocyclopropyl)meth-yl)-6-oxa-2-azaspiro[3.4]octane]	48.4 nM	631 nM	399 nM	1.94 nM
Fc1ccc2cc3[nH]ncc3c(-c3nccc4c3sc3nc(OC[C@@]56CCCN5C[C@H](F)C6)nc(N5C[C@H]6CC[C@@H](C5)N6)c34)c2c1 [Ex-57, 4-((1R,5S)-3,8-diazabicyclo[3.2.1]octan-3-yl)-8-(6-fluoro-1H-benzo[f]indazol-4-yl)-2-(((2R,7aS)-2-fluorotetrahydro-1H-pyrrolizin-7a(5H)-yl)methoxy)pyri-do[4′,3′:4,5] thieno[2,3-d]pyrimidine]	299 nM	2090 nM	2890 nM	23.6 nM
C#Cc1c(F)ccc2cc3[nH]ncc3c(-c3nccc4c3sc3nc(OC[C@@]56CCCN5C[C@@H](F)C6)nc(N5CC6CCC(C5)N6)c34)c12 [Ex-108, 4-(3,8-diazabicyclo[3.2.1]octan-3-yl)-8-(5-ethynyl-6-fluoro-1H-benzo[f]indazol-4-yl)-2-(((2S,7aS)-2-fluorotetrahydro-1H-pyrrolizin-7a(5H)-yl)methoxy)pyrido[4′, 3′:4,5]thieno[2,3-d]pyrimidine]	16.2 nM	372 nM	215 nM	1.62 nM
C#Cc1c(F)ccc2cc3[nH]ncc3c(-c3nccc4c3sc3nc(OCC56CCCC5N(C)CCC6)nc(N5C[C@H]6CC[C@@H](C5)N6)c34)c12 (stereo partly drawn) [Ex-92, 4-((1R,5S)-3,8-diazabicyclo[3.2.1]octan-3-yl)-8-(5-ethynyl-6-fluoro-1H-benzo[f]indazol-4-yl)-2-((1-methyloctahydro-4aH-cyclopenta[b]pyridin-4a-yl)methoxy)pyrido[4′, 3′:4,5]thieno[2,3-d]pyrimidine]	18.1 nM	88.2 nM	57.4 nM	1.99 nM
C#Cc1c(F)ccc2cc3[nH]ncc3c(-c3nccc4c3sc3nc(OC[C@]5(CN6CCN(CC(F)(F)F)CC6)CC5(F)F)nc(N5C[C@H]6CC[C@@H](C5)N6)c34)c12 [Ex-101, 4-((1R,5S)-3,8-diazabicyclo[3.2.1]octan-3-yl)-2-(((R)-2,2-difluoro-1-((4-(2,2,2-trifluoroethyl)piperazin-1-yl)methyl)cyclopropyl)methoxy)-8-(5-ethynyl-6-fluoro-1H-benzo[f]indazol-4-yl)pyrido[4′,3′:4,5]thie-no[2,3-d]pyrimidine]	1210 nM	> 11100 nM	> 11100 nM	33.1 nM
FC(F)(F)C1(COc2nc(N3C[C@H]4CC[C@@H](C3)N4)c3c(n2)sc2c(-c4c(C5CC5)c(Cl)cc5[nH]ncc45)nccc23)CCOCC1 [Ex-118, 4-((1R,5S)-3,8-diazabicyclo[3.2.1]octan-3-yl)-8-(6-chloro-5-cyclopropyl-1H-indazol-4-yl)-2-((4-(trifluoromethyl)tetrahydro-2H-pyran-4-yl)methoxy)pyrido[4′,3′:4,5]thieno[2,3-d]pyrimidine]	4880 nM	> 11100 nM	6270 nM	3200 nM

Source: patent US20260347372A1, “SMALL MOLECULE INHIBITORS OF KRAS G12D MUTANT” (MERCK SHARP & DOHME LLC, priority 2023, published 2026)
